What was measured:
Assay type in all cases: cell-based, human
1-LN cells [1] = assay: MMP-9 activity in serum-free culture medium of 1-LN cells (quantitative gelatin zymography); details: for Active MMP-9: 24 h; for MMP-9 EXPRESSION Secretion: Yes/No
Description: Gelatin Zymography—Protein samples were electrophoresed on gelatin-containing 0.75 mm thick 10% polyacrylamide gels in the presence of SDS under nonreducing conditions. After completion of the electrophoretic run, the gels were incubated with two changes of 2.5% Triton X-100 for 1 h, followed by incubation for 18 h at 37° C. in 0.1 M glycine-NaOH, pH 8.3, containing 1 mM CaCl2, and […], before staining with Coomassie Brilliant Blue R-250 to visualize the lysis bands.
MMP-9 Activity in Solution—MMP-9 activity was measured in tissue culture supernatants by quantitative zymography using as a standard MMP-9 purified by affinity chromatography on gelatin-Sepharose from 1-LN cell conditioned medium (10 liters). Conditioned medium (50 μl), from 1-LN cell monolayers in 48 well culture plates (1.7×10^6 cells/well) incubated with Pg 2 glycoforms and/or inhibitors of Pg binding or activation, were electrophoresed on gelatin-containing gels and the degree of lysis was quantified using a Gelman ACD-15 Automatic Computing Densitometer (Gelman Instrument Company, Ann Arbor, Mich.). Values were determined by integrating the density of the selected bands and expressed in units×mm^2. Each gel was scanned three times and the average value of the integrated density of the bands was used to determine levels of MMP-9 from calibration curves constructed with purified active MMP-9 electrophoresed under the same conditions. The statistical analysis of the data was performed on an IBM 433 DX/S computer using the program SYSTAT® for Windows 95. The statistical significance of differences between means was evaluated by Student's t-test. MMP-9 was positively identified in conditioned medium by electrophoretic separation in 10% SDS-polyacrylamide gels (SDS-PAGE), electroblot of the electrophoresed proteins to nitrocellulose membranes and reaction with an anti-MMP-9 mAb (1 μg/ml) followed by reaction with a secondary alkaline phosphatase conjugated anti-mouse IgG. Detection was performed by reaction with the alkaline phosphatase substrate 5-bromo-4-chloro-3-indolyl phosphate in the presence of nitroblue tetrazolium (1 mM each) in 10 mM Tris-HCl, pH 8.5.
Effect of Pg on the Expression of MMP-9 by 1-LN Cells—Cells were seeded into 48-well culture plates and grown in RPMI 1640 containing 10% fetal bovine serum. Confluent monolayers were then incubated for 24 h with quiescent culture medium containing RPMI 1640 and 0.5% fetal bovine serum. Each individual Pg 2 glycoform (0.1 μM) was added in triplicate to cell monolayers in 300 μl of serum-free RPMI 1640 and incubated for 24 h at 37° C. Culture medium was collected to measure secretion of MMP-9 as described under Experimental Procedures. Prior to analyses of the MMP-9 secreted into the medium by 1-LN cells in the presence of individual Pg 2 glycoforms, we purified MMP-9 from conditioned medium (5 liters) by the technique of Masure et al.. […] A similar analysis of the Mr˜95,000 protein yielded the sequence APRQRQ, corresponding to the amino-terminal sequence of proMMP-9. […] We then proceeded to analyze the MMP-9 secreted into the medium by 1-LN cells incubated with each individual Pg 2 glycoform in serum-free culture medium, using the purified MMP-9 as a standard for quantification by gelatin zymography. These analyses (FIG. 7A) show a major band of active protein with a Mr˜85,000. […] Samples of these conditioned media were also subjected to SDS-PAGE under reducing conditions, electroblotted to nitrocellulose membranes and then reacted with an anti-MMP-9 mAb (FIG. 7B). […] A 4-fold decrease in the production of MMP-9 by cells co-incubated with anti-DPP IV mAb 236.3 and Pg 2ε (p<0.001) (Table II) is clearly observed in the conditioned medium (Lane 6 on FIGS. 8A and 8B, respectively).

1-LN cells [2] = assay: [Ca2+]i response of 1-LN cells (Fura-2/AM digital imaging microscopy); details: for [Ca^2+]i Increase: Yes/No; for [Ca2+]i response after binding of glycoform: glycoform 0.1 μM, in words
Description: Measurement of Intracellular Calcium Levels—Cystolic free calcium [Ca^2+]i, was measured by Digital Imaging Microscopy (DIM) using the fluorescent indicator Fura-2/AM as previously described.
[Ca^2+]i Response to Pg 2 Glycoforms Binding on the Surface of 1-LN Cells—We measured changes in [Ca^2+]i after binding of each individual Pg 2 glycoform to the surface of 1-LN cells. […] Similarly, cells were incubated at 37° C. for 1 h with anti-u-PA or anti-p IgGs (100 μg/ml) which inhibit enzymatic activity prior to addition of the highly sialylated glycoforms (Pgs 2γ, 2δ, and 2ε).

1-LN cells [3] = assay: In vitro Matrigel invasion assay (modified Boyden chamber)
Description: In Vitro Invasion Assay—The invasive activity in vitro was assessed by determining the ability of 1-LN cells to invade Matrigel® [47]. Polycarbonate filters (8-μm pore size; Becton Dickinson, Franklin Lakes, N.J.) were coated with Matrigel (12 μg/filter) and placed in a modified Boyden chamber. Cells (1×10^5) were added to the upper chamber in serum-free RPMI 1640 medium, or medium containing purified Pg 2 glycoforms in the absence and presence of anti-DPP IV, anti-u-PA or anti-MMP-9 IgGs, and incubated for 48 h in a humidified atmosphere. Following incubation, non-invading cells were removed from the upper chamber with a cotton swab, and filters were excised and stained with Cyto-Quik™ (Fisher Scientific, Fair Lawn, N.J.). Cells on the lower surface of the filter were enumerated using an ocular micrometer and counting a minimum of five high-powered fields. Each experiment was performed twice with triplicate samples.
Effect of Pg on 1-LN Cellular Invasion—Pg enhances the ability of prostate cancer PC-3 and DU-145 cell lines to penetrate the synthetic basement membrane Matrigel® [54]. To determine whether Pg regulates invasion via secretion of MMP-9, 1-LN cells were incubated with different inhibiting antibodies in the presence of purified Pg 2 glycoforms.

[4] = SFM + 6-AHA (100 nM) + glycoform 0.1 μM
[5] = SFM + L-lac (100 mM) + glycoform 0.1 μM
[6] = SFM + glycoform 0.1 μM, no additive, 37° C.
[7] = Serum-Free Medium + glycoform 0.1 μM
[8] = SFM + DPP IV-Ab (50 μg/ml) + glycoform 0.1 μM
[9] = glycoform 0.1 μM +Anti-DPP IV IgG 50 μg/ml
[10] = glycoform 0.1 μM +Anti-MMP-9 IgG 20 μg/ml
[11] = glycoform 0.1 μM +Anti-u-PA IgG 100 μg/ml

Molecule	Active MMP-9 (1-LN cells [1]; SFM + additive alone, no Pg 2 glycoform)	Decrease in the production of MMP-9 (1-LN cells [1]; cells co-incubated with Pg 2ε, L-lactose 100 mM, anti-DPP IV mAb)	Active MMP-9 (1-LN cells [1]; [4])	Active MMP-9 (1-LN cells [1]; [5])	Active MMP-9 (1-LN cells [1]; [6])	MMP-9 EXPRESSION Secretion (1-LN cells [1])	[Ca^2+]i Increase (1-LN cells [2])	[Ca2+]i response after binding of glycoform (1-LN cells [2])	Relative Invasion (Number of Cells/Field) (1-LN cells [3]; [7])	Active MMP-9 (1-LN cells [1]; [8])	Relative Invasion (Number of Cells/Field) (1-LN cells [3]; [9])	Relative Invasion (Number of Cells/Field) (1-LN cells [3]; [10])	Relative Invasion (Number of Cells/Field) (1-LN cells [3]; [11])	Stimulation of active MMP-9 secreted (1-LN cells [1]; compared to cells with other Pg 2 glycoforms or culture medium, p<0.001)	Enhancement of cellular invasion (1-LN cells [3]; Matrigel invasion by 1-LN cells)
OC[C@@H]1O[C@H](O[C@@H]2[C@@H](O)[C@H](O)C(O)O[C@H]2CO)[C@@H](O)[C@H](O)[C@@H]1O (stereo partly drawn) [L-lactose, reference compound]	0.15 ± 0.03 ng/mL	12 fold													
Pg 2α: glycoform of human plasminogen type 2 purified from plasma; 1.3 mol sialic acid/mol Pg			0.59 ± 0.17 ng/mL	0.11 ± 0.02 ng/mL	0.59 ± 0.16 ng/mL	No	No	did not produce any changes	13.5 ± 3.4 Number of Cells/Field						
Pg 2β: glycoform of human plasminogen type 2 purified from plasma; 2.2 mol sialic acid/mol Pg			0.5 ± 0.13 ng/mL	0.17 ± 0.04 ng/mL	0.59 ± 0.13 ng/mL	No	No	did not produce any changes	9.4 ± 2.1 Number of Cells/Field						
Pg 2γ: glycoform of human plasminogen type 2 purified from plasma; 2.95 mol sialic acid/mol Pg			0.63 ± 0.21 ng/mL	0.15 ± 0.03 ng/mL	0.60 ± 0.17 ng/mL	No	Yes	elicited a [Ca^2+]i response	7.8 ± 1.6 Number of Cells/Field	0.58 ± 0.12 ng/mL	4.6 ± 2.7 Number of Cells/Field	2.1 ± 1.2 Number of Cells/Field	5.3 ± 2.8 Number of Cells/Field		
Pg 2δ: glycoform of human plasminogen type 2 purified from plasma; 5.77 mol sialic acid/mol Pg			0.57 ± 0.14 ng/mL	0.18 ± 0.04 ng/mL	0.62 ± 0.18 ng/mL	No	Yes	elicited a [Ca^2+]i response	9.2 ± 2.5 Number of Cells/Field	0.56 ± 0.11 ng/mL	10.4 ± 3.1 Number of Cells/Field	1.8 ± 1.0 Number of Cells/Field	7.8 ± 2.6 Number of Cells/Field		
Pg 2ε: glycoform of human plasminogen type 2 purified from plasma; 5.34 mol sialic acid/mol Pg			1.82 ± 0.23 ng/mL	0.14 ± 0.05 ng/mL	1.80 ± 0.21 ng/mL	Yes	Yes	elicited a [Ca^2+]i response	46.6 ± 5.4 Number of Cells/Field	0.49 ± 0.14 ng/mL	3.1 ± 1.6 Number of Cells/Field	1.5 ± 1.0 Number of Cells/Field	2.1 ± 1.3 Number of Cells/Field	3 fold	6-7 fold
Pg 2φ: glycoform of human plasminogen type 2 purified from plasma; 13.65 mol sialic acid/mol Pg			0.57 ± 0.11 ng/mL	0.11 ± 0.02 ng/mL	0.63 ± 0.14 ng/mL			No response	6.8 ± 1.3 Number of Cells/Field						

From patent US20030138429A1, “Compositions and methods for inhibiting metastasis” (priority 2001, published 2003)
